pKd: −log10 of the molar value.
What follows are compounds tested against T1, PDGFRB(DKIN) (PDGFR-β) (Homo sapiens, UniProt P09619) (assay: Phage-display competitive binding assay, PDGFRB(DKIN)). Conditions: T7 phage displaying human PDGFR-β, DKIN construct; read-out: Binding Assay: PDGFRB(DKIN).
T1 construct: PDGFRB(DKIN)
Method: The term “ND” represents non-determined values.
Briefly, T7 phage displaying human PDGFR-β were incubated with an affinity matrix coated with known PDGFR-β inhibitor in the presence of various concentrations of the soluble competitor molecules.

Row | SMILES | pKd
1 | CC(C)(C)c1cc(NC(=O)Nc2ccc(C(=O)/C=C/c3ccncc3)cc2)no1 | 6.00 to 7.00
2 | O=C(c1cc2ccccc2[nH]1)c1cc2cc(O)ccc2[nH]1 | > 7.00
3 | CC(C)(C)c1cnc(CSc2cnc(NC(=O)Nc3ccon3)s2)o1 | 5.00 to 6.00
4 | CC(C)(C)c1cc(NC(=O)Nc2ccc(CCc3ccc(N)cc3)cc2)no1 [Compound A3] | > 7.00
5 | CC(C)(C)c1cc(NC(=O)Nc2ccc(Cl)cc2Cl)no1 [Compound A7] | 5.00 to 6.00
6 | CC(C)c1ccc(NC(=O)Nc2cc(C(C)(C)C)no2)cc1 [Compound A11] | 6.00 to 7.00
7 | CC(C)(C)c1cc(NC(=O)Nc2ccc(OC(F)F)cc2)no1 [Compound A12] | 6.00 to 7.00
8 | CC(C)(C)c1cc(NC(=O)Nc2ccc(OC(F)(F)F)cc2)on1 [Compound A13] | 6.00 to 7.00
9 | CC(C)(C)c1cc(NC(=O)Nc2ccc(CCc3ccccc3)cc2)no1 [Compound A15] | > 7.00
10 | CC(C)(C)c1ccc(NC(=O)Nc2cc(C(C)(C)C)no2)cc1 [Compound A16] | 6.00 to 7.00
11 | CC(C)(C)c1cc(NC(=O)Nc2ccc3cc4ccccc4cc3c2)no1 [Compound A18] | 5.00 to 6.00
12 | CC(=O)c1ccc(NC(=O)Nc2cc(C(C)(C)C)on2)cc1 [Compound A20] | 6.00 to 7.00
13 | CC(C)(C)c1cc(NC(=O)Nc2ccc([N+](=O)[O-])cc2)no1 [Compound A21] | 6.00 to 7.00
14 | CC(C)(C)c1cc(NC(=O)Nc2ccc(Oc3ccccc3)cc2)no1 [Compound A24] | 6.00 to 7.00
15 | CC(C)c1ccc(NC(=O)Nc2cc(C(C)(C)C)on2)cc1 [Compound A25] | 6.00 to 7.00
16 | CC(C)(C)c1cc(NC(=O)Nc2ccc(Br)cc2C(F)(F)F)on1 [Compound A26] | 5.00 to 6.00
17 | CC(C)(C)c1cc(NC(=O)Nc2ccc(Cl)cc2)no1 [Compound A27] | 6.00 to 7.00
18 | COc1ccc(NC(=O)Nc2cc(C(C)(C)C)on2)cc1 [Compound A29] | 6.00 to 7.00
19 | COc1ccc(NC(=O)Nc2cc(C(C)(C)C)no2)cc1 [Compound A30] | > 7.00
20 | CC(C)(C)c1cc(NC(=O)Nc2ccc(Cl)cc2)on1 [Compound A32] | > 7.00
21 | Cc1ccc(NC(=O)Nc2cc(C(C)(C)C)on2)cc1 [Compound A33] | > 7.00
22 | CC(C)(C)c1cc(NC(=O)Nc2ccc(OCCN3CCOCC3)c3ccccc23)no1 [Compound A36] | 5.00 to 6.00

Row | SMILES | pKd
23 | CSc1ccc(NC(=O)Nc2cc(C(C)(C)C)on2)cc1 [Compound A37] | 6.00 to 7.00
24 | CSc1ccc(NC(=O)Nc2cc(C(C)(C)C)no2)cc1 [Compound A39] | 6.00 to 7.00
25 | C[S+]([O-])c1ccc(NC(=O)Nc2cc(C(C)(C)C)on2)cc1 (centres unmarked) [Compound A46] | 6.00 to 7.00
26 | COc1ccc(NC(=O)Nc2cc(C(C)(C)C)on2)cc1OC [Compound A55] | 5.00 to 6.00
27 | CC(C)(C)c1cc(NC(=O)Nc2ccc3c(c2)OCO3)no1 [Compound A56] | 5.00 to 6.00
28 | CC(C)(C)c1cc(NC(=O)Nc2ccc(N3C(=O)c4ccccc4C3=O)cc2)no1 [Compound A57] | > 7.00
29 | COc1cccc(CNC(=O)Nc2cc(C(C)(C)C)on2)c1 [Compound B3] | 6.00 to 7.00
30 | CC(C)(C)c1cc(NC(=O)Nc2ccc(C(=O)O)cc2)no1 [Compound C2] | < 5.00
31 | Cc1ccc(-n2nc(C(C)(C)C)cc2NC(=O)Nc2ccc(C(C)C)cc2)cc1 [Compound D1, 1-(3-tert-butyl-1-p-tolyl-1H-pyrazol-5-yl)-3-(4-isopropylphenyl)urea] | < 5.00
32 | O=C(Nc1ccc(Cl)cc1)Nc1cc(C2CC2)nn1-c1ccccc1 [Compound D10] | 5.00 to 6.00
33 | CC(C)(C)c1cc(N2CCCN(c3ccc(OCc4ccccc4)cc3)C2=O)on1 [Compound E2] | 6.00 to 7.00
34 | CC(C)(C)c1cc(N2CCCN(c3ccc(OCc4ccccc4)cc3)C2=O)no1 [Compound E3] | < 5.00
35 | CN1CN(c2ccc(OCc3ccccc3)cc2)C(=O)N(c2cc(C(C)(C)C)on2)C1 [Compound E4] | 6.00 to 7.00
36 | COc1ccc(N2CCCN(c3cc(C(C)(C)C)no3)C2=O)cc1 [Compound E5] | 6.00 to 7.00
37 | CC(C)(C)c1cc(NC(=S)Nc2ccc(N3CCOCC3)cc2)no1 [Compound F1, 1-(5-tert-butylisoxazol-3-yl)-3-(4-morpholinophenyl)thiourea] | < 5.00
38 | CC(C)(C)c1cc(NC(=O)Nc2ccc(OCc3ccccc3C(F)(F)F)cc2)no1 [Compound G4] | 6.00 to 7.00
39 | CC(C)(C)c1cc(NC(=O)Nc2ccc(OCc3ccc(OC(F)(F)F)cc3)cc2)no1 [Compound G5] | > 7.00
40 | CC(C)(C)c1cc(NC(=O)Nc2ccc(OCc3ccc(C(F)(F)F)cc3)cc2)no1 [Compound G6] | > 7.00
41 | COC(=O)c1cccc(COc2ccc(NC(=O)Nc3cc(C(C)(C)C)on3)cc2)c1 [Compound G7] | > 7.00
42 | CC(C)(C)c1cc(NC(=O)Nc2ccc(OCc3ccccc3-c3ccccc3)cc2)no1 [Compound G8] | 6.00 to 7.00
43 | CC(C)(C)c1cc(NC(=O)Nc2ccc(OCc3ccc(C(=O)c4ccccc4)cc3)cc2)no1 [Compound G9] | 6.00 to 7.00
44 | CC(C)(C)c1cc(NC(=O)Nc2ccc(OCc3ccccc3Cl)cc2)no1 [Compound G10] | > 7.00

Row | SMILES | pKd
45 | CC(C)(C)c1cc(NC(=O)Nc2ccc(OCc3cccc(Cl)c3)cc2)no1 [Compound G11] | > 7.00
46 | CC(C)(C)c1cc(NC(=O)Nc2ccc(OCc3ccccc3F)cc2)no1 [Compound G12, 1-(4-(2-fluorobenzyloxy)phenyl)-3-(5-tert-butylisoxazol-3-yl)urea] | > 7.00
47 | COc1cccc(COc2ccc(NC(=O)Nc3cc(C(C)(C)C)on3)cc2)c1 [Compound G13] | > 7.00
48 | CC(C)(C)c1cc(NC(=O)Nc2ccc(OCc3cccc(F)c3)cc2)no1 [Compound G14] | > 7.00
49 | Cc1ccc(COc2ccc(NC(=O)Nc3cc(C(C)(C)C)on3)cc2)cc1 [Compound G15] | > 7.00
50 | CC(Oc1ccc(NC(=O)Nc2cc(C(C)(C)C)on2)cc1)c1ccccc1 (centres unmarked) [Compound G17] | 6.00 to 7.00
51 | CC(C)(C)c1cc(NC(=O)Nc2ccc(OCc3ccc(F)cc3Cl)cc2)no1 [Compound G18] | > 7.00
52 | CC(C)(C)c1cc(NC(=O)Nc2ccc(OCc3c(Cl)cccc3Cl)cc2)no1 [Compound G19] | 6.00 to 7.00
53 | CCOc1ccc(NC(=O)Nc2cc(C(C)(C)C)on2)cc1 [Compound G20] | > 7.00
54 | CC(C)(C)c1cc(NC(=O)Nc2ccc(OCc3c(F)cccc3F)cc2)no1 [Compound G21] | > 7.00
55 | CC(C)(C)c1cc(NC(=O)Nc2ccc(OCCc3ccncc3)cc2)no1 [Compound G22] | > 7.00
56 | CC(C)(C)c1cc(NC(=O)Nc2ccc(OC/C=C/c3ccccc3Cl)cc2)no1 [Compound G26] | > 7.00
57 | CC(C)(C)c1cc(NC(=O)Nc2ccc(OCC(O)CO)cc2)no1 (centres unmarked) [Compound G28] | 6.00 to 7.00
58 | CC(C)(C)c1cc(NC(=O)Nc2ccc(OCc3ccccc3)cc2)on1 [Compound G30] | > 7.00
59 | CC(C)(C)c1cc(NC(=O)Nc2ccc(OCc3ccccc3)cc2)no1 [Compound G31] | > 7.00
60 | C=CCOc1ccc(NC(=O)Nc2cc(C(C)(C)C)no2)cc1 [Compound G32] | > 7.00
61 | CC(C)Oc1ccc(NC(=O)Nc2cc(C(C)(C)C)no2)cc1 [Compound G33] | > 7.00
62 | CC(C)(C)c1cc(NC(=O)Nc2ccc(OCc3ccc(Cl)cc3)cc2)no1 [Compound G34] | > 7.00
63 | CC(C)(C)c1cc(NC(=O)Nc2ccc(OCc3ccc(F)cc3)cc2)no1 [Compound G35] | > 7.00
64 | CC(C)(C)c1cc(NC(=O)Nc2ccc(OCC3CC3)cc2)no1 [Compound G37] | > 7.00
65 | Cc1ccc(-n2nc(C(C)(C)C)cc2NC(=O)Nc2ccc(OCCN3CCOC(CO)C3)c3ccccc23)cc1 (centres unmarked) [Compound G38] | 6.00 to 7.00
66 | CC(C)(C)c1cc(NC(=O)Nc2ccc(OCC3CCC3)cc2)no1 [Compound G39] | > 7.00

Row | SMILES | pKd
67 | CC(C)(C)c1cc(NC(=O)Nc2ccc(OCCN3CCOCC3)cc2)no1 [Compound G40] | 5.00 to 6.00
68 | CC1CN(CCOc2ccc(NC(=O)Nc3cc(C(C)(C)C)on3)cc2)CC(C)O1 (centres unmarked) [Compound G42] | 6.00 to 7.00
69 | CC1CCCN(CCOc2ccc(NC(=O)Nc3cc(C(C)(C)C)on3)cc2)C1 (centres unmarked) [Compound G44] | < 5.00
70 | CC1CN(CCOc2ccc(NC(=O)Nc3cc(C(C)(C)C)on3)cc2)CCN1 (centres unmarked) [Compound G46] | 5.00 to 6.00
71 | CC(C)(C)c1cc(NC(=O)Nc2ccc(OCCN3CCC(O)CC3)cc2)no1 [Compound G48] | 5.00 to 6.00
72 | CC(C)(C)c1cc(NC(=O)Nc2ccc(OCCN3CCSCC3)cc2)no1 [Compound G53] | 6.00 to 7.00
73 | CC(C)(C)c1cc(NC(=O)Nc2ccc(OCc3ccc4nonc4c3)cc2)no1 [Compound G55] | 6.00 to 7.00
74 | CC(C)(C)c1cc(NC(=O)Nc2ccc(OCc3ccc(-c4ccccc4)cc3)cc2)no1 [Compound G56] | > 7.00
75 | Cn1nc(C(C)(C)C)cc1NC(=O)Nc1ccc(OCc2ccccc2)cc1 [Compound H2] | 6.00 to 7.00
76 | Cc1cc(NC(=O)Nc2ccc(OCc3ccccc3)cc2)n(-c2ccccc2)n1 [Compound H4] | 5.00 to 6.00
77 | Cn1nc(C2CC2)cc1NC(=O)Nc1ccc(OCc2ccccc2)cc1 [Compound H7] | < 5.00
78 | O=C(Nc1ccc(OCc2ccccc2)cc1)Nc1cc(C2CC2)nn1-c1ccccc1 [Compound H8] | 6.00 to 7.00
79 | Cc1ccc(-n2nc(C(C)(C)C)cc2NC(=O)Nc2cc(C(C)(C)C)on2)cc1 [Compound H11] | 5.00 to 6.00
80 | Cc1ccc(-n2nc(C(C)(C)C)cc2NC(=O)Nc2ccc(Br)cc2C(F)(F)F)cc1 [Compound H13] | 5.00 to 6.00
81 | Cc1ccc(-n2nc(C(C)(C)C)cc2NC(=O)Nc2ccc(Cl)cc2)cc1 [Compound H14] | 6.00 to 7.00
82 | CN(Cc1cccc([N+](=O)[O-])c1)C(=O)Nc1cc(C(C)(C)C)on1 [Compound J3] | 6.00 to 7.00
83 | COc1ccc(N(C)C(=O)N(C)c2cc(C(C)(C)C)no2)cc1 [Compound J8] | < 5.00
84 | COc1ccc(N(C)C(=O)Nc2cc(C(C)(C)C)on2)cc1 [Compound J10] | > 7.00
85 | CCOC(=O)NN(C(=O)Nc1cc(C(C)(C)C)on1)c1ccc(OC)cc1 [Compound J13] | < 5.00
86 | COc1ccc(N(N)C(=O)Nc2cc(C(C)(C)C)on2)cc1 [Compound J14] | < 5.00

— patent publication US20050197371A1, “Urea derivatives as PDGFR modulators” (Ambit Biosciences Corporation, priority 2003, published 2005)
